Laboratory results reported in patent US8980920B2, “Antiviral compounds of three linked aryl moieties to treat diseases such as hepatitis C” (Merck Sharp & Dohme Corp., priority 2009, dated 2015).

Assays:
[1] = system: HCV replicon 1b Y93H; experiment: Cell-based HCV replicon assay, genotype 1b Y93H; settings: Hepatitis C virus, 72 h, read-out: EC50 1b Y93H
Method: (§1) To measure cell-based anti-HCV activity of selected compounds of the present invention, the following replicon assay can be used.
(§2) Replicon cells are seeded at 5000 cells/well in 96-well collagen I-coated Nunc plates in the presence of the test compound. Various concentrations of test compound, typically in 10 serial 2-fold dilutions, are added to the assay mixture, with the starting concentration ranging from 10 μM to 0.001 μM. The final concentration of DMSO should be about 0.5%, and the final concentration of fetal bovine serum should be about 5%, in the assay media. Cells are harvested on day 3 by the addition of 1× cell lysis buffer (Ambion cat #8721). The replicon RNA level is then measured (using, for example, the real time PCR (Taqman assay)). The amplicon is located in 5B. The PCR primers are: 5B.2F, ATGGACAGGCGCCCTGA (SEQ ID NO. 1); 5B.2R, […] (SEQ ID NO. 2); the probe sequence is FAM-labeled CACGCCATGCGCTGCGG (SEQ ID NO. 3). […] Alternatively, to quantitate the absolute amount of replicon RNA, a standard curve can be established by including serially diluted T7 transcripts of replicon RNA in the Taqman assay. […]
(§3) HCV replicon assay data was calculated for various genotypes for selected compounds of the present invention using this method and is provided in the table below.

[2] = system: HCV replicon 1b c16; experiment: Cell-based HCV replicon assay, genotype 1b c16; settings: Hepatitis C virus, 72 h; replicon cells, genotype 1b c16, replicon RNA by Taqman on day 3
Method: as §1
Replicon cells are seeded at 5000 cells/well in 96-well collagen I-coated Nunc plates in the presence of the test compound. Various concentrations of test compound, typically in 10 serial 2-fold dilutions, are added to the assay mixture, with the starting concentration ranging from 10 μM to 0.001 μM. The final concentration of DMSO should be about 0.5%, and the final concentration of fetal bovine serum should be about 5%, in the assay media. Cells are harvested on day 3 by the addition of 1× cell lysis buffer (Ambion cat #8721). The replicon RNA level is then measured (using, for example, the real time PCR (Taqman assay)). The amplicon is located in 5B. The PCR primers are: 5B.2F, ATGGACAGGCGCCCTGA (SEQ ID NO. 1); 5B.2R, […] (SEQ ID NO. 2); the probe sequence is FAM-labeled CACGCCATGCGCTGCGG (SEQ ID NO. 3). GAPDH RNA is to be used as endogenous control and is amplified in the same reaction as NS5B (multiplex PCR) using the primers and the VIC-labeled probe recommended by the manufacturer (PE Applied Biosystems). The real-time RT-PCR reactions can be run on an ABI PRISM 7900HT Sequence Detection System using the following program: 48° C. for 30 minutes, 95° C. for 10 minutes, 40 cycles of 95° C. for 15 sec, 60° C. for 1 minute. The ΔCT values (CT5B-CTGAPDH) are then plotted against the concentration of test compound and fitted to the sigmoid dose-response model using XLfit4 (MDL). EC50 is defined as the concentration of inhibitor necessary to achieve ΔCT=1 over the projected baseline; EC90 is defined as the concentration necessary to achieve ΔCT=3.2 over the baseline. Alternatively, to quantitate the absolute amount of replicon RNA, a standard curve can be established by including serially diluted T7 transcripts of replicon RNA in the Taqman assay. […]
as §3

[3] = system: HCV replicon 2a JFH; experiment: Cell-based HCV replicon assay, genotype 2a JFH; settings: Hepatitis C virus, 72 h, replicon cells, replicon RNA by Taqman on day 3
Method: as §1, §2, §3

[4] = system: HCV replicon 1a 1A7; experiment: Cell-based HCV replicon assay, genotype 1a 1A7; settings: Hepatitis C virus, 72 h; replicon cells, genotype 1a 1A7, replicon RNA by Taqman on day 3
Method: as §1, §2, §3

SMILES: COC(=O)N[C@@H](C(=O)N1CCC[C@@H]1c1ncc(-c2ccc(C#Cc3ccc4nc([C@@H]5CCCN5C(=O)[C@H](NC(=O)OC)c5ccccc5)[nH]c4c3)cc2)[nH]1)c1ccccc1 [Compound 57]
- EC50 [1]: 0.5 nM
- EC50 [2]: 0.001 nM
- EC50 [3]: 0.019 nM
- EC50 [4]: 0.41 nM

SMILES: CC(C)(C)OC(=O)N1CCC[C@H]1c1ncc(-c2ccc(C#Cc3ccc4nc([C@@H]5CCCN5C(=O)OC(C)(C)C)[nH]c4c3)cc2)[nH]1 [Compound 58]
- EC50 [2]: 251 nM

SMILES: COC(=O)N[C@H](C(=O)N1CCC[C@@H]1c1ncc(-c2ccc(C#Cc3ccc4nc([C@@H]5CCCN5C(=O)[C@@H](NC(=O)OC)C(C)C)[nH]c4c3)cc2)[nH]1)C(C)C [Compound 56]
- EC50 [1]: 5 nM
- EC50 [2]: 0.016 nM
- EC50 [3]: 0.3 nM
- EC50 [4]: 0.3 nM
